Ends that are not written are not given here.
What was measured:
α7 nicotinic-receptor = α7 nicotinic-receptor (Homo sapiens, UniProt P36544); settings: cited from earlier work
PC12 cells [1] = assay: Acetylcholinesterase activity assay (AChE release from PC12 cells, Ellman reagent); format: cell-based; settings: % AChE release compared to untreated control
Experimental: AChE activity was measured using the Ellman reagent that measures the presence of thiol groups as a result of AChE activity. Cells were plated the day before the experiment as for the cell viability assay. […] The Ellman reagent was prepared as a mixture of the 3 solutions in a ratio 33(A):3(B):4(C). Absorbance measurements were taken at regular intervals (3, 10, 30 and 60 mins) across experiments at 405 nm.

[2] = Cell viability assay (Cell Counting Kit-8); format: cell-based; settings: % PC12 cell viability compared to untreated control;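 also: PC12 cells in 96-well plates, WST-8 turned into formazan by cellular dehydrogenases, absorbance read at 450 nm after 2 h with the reagent, signal proportional to living cell number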
Description: (§1) A Cell Counting Kit-8 (CCK-8) was used as an improvement of the SRB technique used before. By utilizing the highly water-soluble tetrazolium salt WST-8, CCK-8 produces a water-soluble formazan dye upon reduction in the presence of an electron carrier. WST-8 is reduced by dehydrogenases in cells to give a yellow colored product (formazan), which is soluble in the tissue culture medium. The amount of the formazan dye generated by the activity of dehydrogenases in cells is directly proportional to the number of living cells. PC12 cells are plated in 200 μl of complete growth medium the day before the experiment in 96 well plates. […] Subsequently, 100 μl of growth medium is removed and 10 μl of CCK-8 (Cell Counting Kit-8) solution is added. The plate is incubated for 2 hours in the incubator and then placed in the absorbance plate reader. The absorbance must be measured at 450 nm.

PC12 cells [3] = assay: Calcium fluorometry (Fluo-8, acetylcholine-induced calcium influx); format: cell-based; design: Calcium: scale not given here; settings: for Calcium: calcium influx value, control based on acetylcholine alone
Description: A final criterion used to determine active peptides is the amount of calcium influx into PC12 cells caused by the peptide. The calcium influx value can be calculated as described in the methods section. The calcium value corresponds to the result from the experiment when applying T30 or Aβ alone or in conjunction with the small peptides. The control value for these experiments is based on the calcium influx induced by acetylcholine alone. Preferably, the peptide, derivative or analogue thereof has a calcium influx value of less than 120, and more preferably a value of 97-120.
PC12 cells are plated in 200 μl of complete growth medium the day before the experiment in 96 well plates. On the day of the experiment, the Fluo-8 solution (Abcam) is prepared (as per provider protocol). Subsequently, 100 μl of growth medium is removed and 100 μl of Fluo-8 solution is added. Treatments with T30 or Aβ in conjunction with NBP-14 or small peptides are added and incubated for 30 minutes in the incubator and 30 minutes room temperature.
After 1 hour, the plate is placed in the fluorescence plate reader (Fluostar). Before reading the fluorescence, acetylcholine (ACh) 100 μM is prepared and placed in the Fluostar injector. For each well, the reading will be formed by a basal fluorescence followed by acetylcholine injection that will induce an increase of calcium via nicotinic receptors. The effects of the peptides are then evaluated.

PC12 cells [4] = assay: Value coefficient (AChE release vs PC12 cell viability) and filter selection; format: cell-based; settings: for Value AChE/Viability: 1.0 to 1.1 = protective, control = 1
Description: AChE release vs PC12 cell viability (for which there is a significant negative correlation); • 2. In silico binding to the allosteric site of the α7 nicotinic-receptor; • 3. Calcium influx into PC12 cells; and • 4. Peptide size.

basal forebrain = assay: VSDI of evoked responses in basal forebrain brain slices; design: species or system rat; settings: T30 2 μM & peptide 4 μM in perfusate; 30V electrical stimulation
Experimental: Coronal rat brain slices were prepared according to the procedure described in (Badin et al., 2013) but this time containing basal forebrain (+0.70 and −0.26 millimetres (mm) from bregma (Paxinos and Watson, 1998). Optical imaging using voltage-sensitive dyes was then performed as previously described (Badin et al., 2013, Neuropharmacology. 73C:10-18).
VSDI data were recorded in 4×4 mm 2-dimensional images, equivalent to 100×100 pixels—each pixel being 40×40 micrometres (μm), from which critical data were extracted. VSDI data was not gathered throughout the experimental run, but in fact was recorded in discrete periods of time 15 minutes in length. The inter-stimulus interval (ISI) between stimulations was 28 seconds and therefore, every recording epoch consisted of 32 successive stimulations. The data from all 32 stimulations were then averaged into a single file for each experimental condition and analysed using a VSDI data analysis toolbox specially made for MatLab (Bourgeois et al., 2014, PLoS One. 9:e108686). […] In order to quantify VSDI data however, the area under the curve was calculated (summed fluorescence fractional change, FIG. 11-22) between the moment of stimulation (t=0) and 280 ms after that; this method of quantification takes into account all the components of the immediate and longer-latency response. […]

PC12 cells [5] = assay: Cell viability assay (Cell Counting Kit-8); format: cell-based; settings: toxic peptide alone; compared to untreated control;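 also: PC12 cells in 96-well plates, WST-8 turned into formazan by cellular dehydrogenases, absorbance read at 450 nm after 2 h with the reagent, signal proportional to living cell number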
Description: as §1

cells = settings: inventors' previous work; cited from earlier work
rat brain slices = settings: inventors' previous work, cited from earlier work
[6] = T30 5 μM + small peptide 0.5 μM

α7 nicotinic-receptor, sequence (P36544 23-502): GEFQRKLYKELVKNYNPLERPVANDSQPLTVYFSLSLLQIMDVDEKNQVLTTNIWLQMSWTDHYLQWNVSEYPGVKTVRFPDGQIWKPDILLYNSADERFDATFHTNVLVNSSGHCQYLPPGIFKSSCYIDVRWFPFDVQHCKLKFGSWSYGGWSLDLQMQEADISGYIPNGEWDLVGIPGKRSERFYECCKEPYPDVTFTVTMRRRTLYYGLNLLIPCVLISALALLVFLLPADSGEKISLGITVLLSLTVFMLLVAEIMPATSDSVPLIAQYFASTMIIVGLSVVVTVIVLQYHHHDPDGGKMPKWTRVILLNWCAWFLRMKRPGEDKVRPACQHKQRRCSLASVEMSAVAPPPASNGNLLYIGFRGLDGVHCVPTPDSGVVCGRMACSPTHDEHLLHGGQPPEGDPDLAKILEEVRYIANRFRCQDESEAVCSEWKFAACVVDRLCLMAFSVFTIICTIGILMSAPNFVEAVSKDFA

In the case of COc1ccc2c3c1O[C@H]1C[C@@H](O)C=C[C@@]31CCN(C)C2 [galanthamine], the “affinity for the α7 nicotinic-receptor” value (α7 nicotinic-receptor) is given as 10 µM.
In the case of “AEFHRWSSYMVHWK (listed as Homo sapiens) [T14, linear 14 amino acid peptide from the C-terminus of AChE]”, the “affinity for the α7 nicotinic-receptor” value (α7 nicotinic-receptor) is given as 0.005 µM.
Compound KAEFHR [NBP-603, KAEFHR] has an AChE (PC12 cells [1]; [6]) of 96.06%, a viability [2, 6] of 94.8% and a Calcium (PC12 cells [3]; T30 + small peptide) of 119.86. The “dose-dependent effect on calcium potentiation against T30” value (PC12 cells [3]; dose-dependent experiments, FIGS. 8 and 9) was “protect against T30 effects”, the “Value AChE/Viability” value (PC12 cells [4]; [6]) was 1.01 and the “neuroprotective agent against T30 when all four filters are taken into consideration” value (PC12 cells [4]; filters: value coefficient, in silico binding, calcium influx, peptide size) was “neuroprotective agents against T30”. The “reversal of T30-induced changes in evoked responses” value (basal forebrain) was “some significant effect in reversing the changes induced by T30”.
With “KAEFHRWSSYMVHWKNQFDHYSKQDRCSDL [T30, reference compound]” the “% PC12 cell viability” value (PC12 cells [5]) was 74.309% and the value coefficient x (PC12 cells [4]; toxic peptide alone, x>1.1 means toxicity) was 2.28.
For “NBP14: cyclic peptide based on T14 sequence AEFHRWSSYMVHWK, cyclated via the terminal Alanine and Lysine residues (head-to-tail cyclised; listed as Homo sapiens)”, the “reversal of T30-induced changes in evoked responses” value (basal forebrain) is given as “significantly reverse any kind of change induced by T30”, the “action at the α7 nicotinic-receptor” value (α7 nicotinic-receptor; inventors' previous work) is given as “true antagonist of the α7 nicotinic-receptor” and the “compensatory AChE release” value (cells) is given as “blocks compensatory AChE release induced by the toxicity of linear T14 and T30”. The “protection of cells from toxicity” value (cells) was “protect cells from linear T14, T30 and β-amyloid toxicity”, the “effect on Ca2+ concentrations” value (rat brain slices; given alone) was “no significant effects on Ca^2+ concentrations in rat brain slices” and the “effect on β-amyloid action on Ca2+ concentrations” value (rat brain slices) was “blocks the effects of β-amyloid”.
With WSSYMVHWKAEFHR [NBP-1409] the AChE (PC12 cells [1]; [6]) was 94.85%, the viability [2, 6] was 94.8% and the Calcium (PC12 cells [3]; T30 + small peptide) was 94.59. The “Value AChE/Viability” value (PC12 cells [4]; [6]) was 1.
Work on YMVHW [NBP-512] yielded an AChE (PC12 cells [1]; Aβ 5 μM + small peptide 0.5 μM) of 104.81%, a viability ([2]; Aβ 5 μM + small peptide 0.5 μM) of 104% and a Calcium (PC12 cells [3]; Aβ + small peptide) of 163.09. For the same compound, the “Value AChE/Viability” value (PC12 cells [4]; Aβ 5 μM + small peptide 0.5 μM) was 1.01.
With YMVHWKAEFHR [NBP-1112] the AChE (PC12 cells [1]; Aβ 5 μM + small peptide 0.5 μM) was 98.77%, the viability ([2]; Aβ 5 μM + small peptide 0.5 μM) was 93.4% and the Calcium (PC12 cells [3]; Aβ + small peptide) was 127.62. For the same compound, the “Value AChE/Viability” value (PC12 cells [4]; Aβ 5 μM + small peptide 0.5 μM) was 1.06.
In the case of YMVHWKAEFHRW [NBP-1212], the AChE (PC12 cells [1]; [6]) is reported as 88.29%, the viability [2, 6] is reported as 88.3% and the Calcium (PC12 cells [3]; T30 + small peptide) is reported as 78. For the same compound, the “Value AChE/Viability” value (PC12 cells [4]; [6]) was 1.

Source: patent publication US10729749B2, “Neurodegenerative disorders” (priority 2014, dated 2020)
